For the assay, the system named is isomerase (recovery of 11-cis-retinal after bleaching). The assay can be described thus: In vivo murine isomerase assay (Table 3). To be noted: Mus musculus, po, mice.

The structures appear in SMILES notation.

One may read the inhibition as the change of the read-out against control, counted positive when it falls.

Experimental: The capability of compounds described herein to inhibit isomerase was determined by an in vivo murine isomerase assay. […] The recovery of 11-cis-retinal after bleaching can be used to estimate the activity of isomerase in vivo. Delayed recovery, as represented by lower 11-cis-retinal oxime levels, indicates inhibition of isomerization reaction.
Mice were gavaged with the test compound. […] The mice were allowed to recover 2 hours in the dark. The animals were then sacrificed by carbon dioxide inhalation. Retinoids were extracted from the eye and the regeneration of 11-cis-retinal was assessed at various time intervals.
After the mice were sacrificed, the eyes were immediately removed and placed in liquid nitrogen for storage.
The eyes were placed in 500 μL of bis-tris propane buffer (10 mM, pH˜7.3) and 20 μL of 0.8M hydroxile amine (pH˜7.3). The eyes were cut up into small pieces with small iris scissors and then thoroughly homogenized at 30000 rpm with a mechanical homogenizer (Polytron PT 1300 D) in the tube until no visible tissue remained. 500 μL of methanol and 500 μL of heptane were added to each tube. The tubes were attached to a vortexer so that the contents were mixed thoroughly for 15 minutes in room temperature. The organic phase was separated from the aqueous phase by centrifugation for 10 min at 13K rpm, 4° C. 240 μL of the solution from the top layer (organic phase) was removed and transferred to clean 300 μl glass inserts in HPLC vials using glass pipette and the vials were crimped shut tightly.
The samples were analyzed on an Agilent 1100 HPLC system with normal phase column: SILICA (Beckman Coutlier, dp 5 μm, 4.6 mM×250 mM). […] Loading volume for each sample was 100 μl; detection wavelength was 360 nm. The area under the curve for 11-cis retinal oxime was calculated by Agilent Chemstation software and was recorded manually. Data processing was performed using Prizm software.
Positive control mice (no compound administered) were sacrificed fully dark-adapted and the eye retinoids analyzed. Light (bleached) control mice (no compound administered) were sacrificed and retinoids isolated and analyzed immediately after light treatment.
A time course study was performed to determine the isomerase inhibitory activity of the test compound. […] The animals were then “photo-bleached” (5000 Lux white light for 10 minutes) at 2, 4, 8, 16 and 24 hours after dosing, and returned to darkness to allow recovery of the 11-cis-retinal content of the eyes. Mice were sacrificed 2 hours after bleaching, eyes were enucleated, and retinoid content is analyzed by HPLC.
Recovery control mice (vehicle-only treated) were light-treated and left to recover for 2 hours in the dark before sacrifice and analysis. Light control mice (vehicle only treated) were sacrificed for analysis immediately after photo-bleaching.
An in vivo dose response isomerase inhibition study was performed with test compound. […] Recovery and retinoid analysis were performed as described above. Dark control mice were vehicle-only treated, sacrificed fully dark adapted without light treatment, and analyzed. Recovery control mice and light control mice were included in the study as per the initial phase.

As to `CNCC[C@@H](O)c1cccc(OCC2CCOCC2)c1` [Example 33, (R)-3-(Methylamino)-1-(3-((tetrahydro-2H-pyran-4-yl)methoxy)phenyl)propan-1-ol], the inhibition at 1 mg/kg is, setting by setting: (2 h) 65.2%; (4 h) 54.5%; (8 h) 10.9%; (16 h) -0.8%; (24 h) 1.8%.
`NC/C=C/c1cccc(OCC2CCOCC2)c1` [Example 31, (E)-3-(3-((Tetrahydro-2H-pyran-4-yl)methoxy)phenyl)prop-2-en-1-amine]: the inhibition at 1 mg/kg (2 h) was found to be 11.3%.
Regarding `NCC[C@@H](O)c1cccc(OCc2ccsc2)c1` [Example 29, (R)-3-Amino-1-(3-(thiophen-3-ylmethoxy)phenyl)propan-1-ol], the inhibition at 1 mg/kg (4 h) was found to be 27.4%.
With `NCCC(O)c1cccc(OCC2CCOCC2)c1` (centres unmarked) [Example 2, 3-Amino-1-(3-((tetrahydro-2H-pyran-4-yl)methoxy)phenyl)propan-1-ol], the inhibition at 1 mg/kg (4 h) is 89.9%.
For the compound `NCC[C@@H](O)c1cccc(OCC2CCCSC2)c1` (mixture of isomers) [Example 7, (1R)-3-Amino-1-(3-((tetrahydro-2H-thiopyran-3-yl)methoxy)phenyl)propan-1-ol], the inhibition at 1 mg/kg runs as follows: (2 h) 60.5%; (4 h) 68%; (8 h) 40.3%.
Turning to `COC(=O)N1CCC(COc2cccc([C@H](O)CCN)c2)CC1` [Example 17, (R)-Methyl 4-((3-(3-amino-1-hydroxypropyl)phenoxy)methyl)piperidine-1-carboxylate], where the note is “2 h”, the inhibition at 0.01 mg/kg was found to be 0%, the inhibition at 0.03 mg/kg is -2%, the inhibition at 0.1 mg/kg came to 9% and the inhibition at 0.3 mg/kg was 8%. In addition, for the setting “2 h”, the inhibition at 1 mg/kg worked out at 93% and the inhibition at 3 mg/kg was 100%. Further, the inhibition at 1 mg/kg (4 h) worked out at 88%. Moreover, under “8 h”, the inhibition at 1 mg/kg turned out to be 25%. Also, the inhibition at 1 mg/kg (16 h) was -1%. Besides, the inhibition at 1 mg/kg (24 h) was -8%.
For the compound `NCC[C@@H](O)c1cccc(OCc2cccnc2)c1` [Example 5, (R)-3-Amino-1-(3-(pyridin-3-ylmethoxy)phenyl)propan-1-ol], where the note is “4 h”, the inhibition at 1 mg/kg was found to be 3.1%.
In the case of `NCC[C@@H](O)c1cccc(NCC2CCCCC2)c1` [reference compound], the inhibition at 1 mg/kg (4 h) worked out at 96%.
On to `NCC[C@@H](O)c1cccc(OCC2CCSCC2)c1` [Example 8, (R)-3-Amino-1-(3-((tetrahydro-2H-thiopyran-4-yl)methoxy)phenyl)propan-1-ol], for which, under “4 h”, the inhibition at 1 mg/kg was determined as 33.2%.
Regarding `NCC[C@@H](O)c1cccc(OCC2COc3ccccc3C2)c1` (mixture of isomers) [Example 19, (1R)-3-Amino-1-(3-(chroman-3-ylmethoxy)phenyl)propan-1-ol], the inhibition at 0.3 mg/kg (2 h) was 49.4%, the inhibition at 0.3 mg/kg (4 h) was 40% and the inhibition at 0.3 mg/kg (8 h) worked out at 15.5%. Moreover, the inhibition at 1 mg/kg (4 h) came to 91.4%.
Turning to `CC(=O)N1CCC(COc2cccc([C@H](O)CCN)c2)CC1` [Example 11, (R)-1-(4-((3-(3-Amino-1-hydroxypropyl)phenoxy)methyl)piperidin-1-yl)ethanone], the inhibition at 1 mg/kg reads like this: (2 h) -4.7%; (4 h) 2.6%; (8 h) -3.8%.
With `NCC[C@@H](O)c1cccc(OCC2CCCOC2)c1` (mixture of isomers) [Example 3, (1R)-3-Amino-1-(3-((tetrahydro-2H-pyran-3-yl)methoxy)phenyl)propan-1-ol], under “2 h”, the inhibition at 0.01 mg/kg is 1.2%, the inhibition at 0.03 mg/kg was found to be 2.7%, the inhibition at 0.1 mg/kg stood at 4.2% and the inhibition at 0.3 mg/kg was 75.2%. Further, under “2 h”, the inhibition at 1 mg/kg was 98.7% and the inhibition at 3 mg/kg amounted to 102%. Moreover, under “4 h”, the inhibition at 0.3 mg/kg turned out to be 59.7% and the inhibition at 1 mg/kg came to 94.2%. The inhibition at 0.3 mg/kg (8 h) stood at 14.8%. Besides, for the setting “16 h”, the inhibition at 0.3 mg/kg was found to be 1.6%. Besides, the inhibition at 0.3 mg/kg (24 h) was found to be 4.1%.
Regarding `NCCCc1cccc(OCC2CCOCC2)c1` [Example 32, 3-(3-((Tetrahydro-2H-pyran-4-yl)methoxy)phenyl)propan-1-amine], the inhibition at 1 mg/kg (2 h) was found to be 14.2%.
Take `Cc1cccc(COc2cccc([C@H](O)CCN)c2)n1` [Example 12, (R)-3-Amino-1-(3-((6-methylpyridin-2-yl)methoxy)phenyl)propan-1-ol]: the inhibition at 1 mg/kg (4 h) was 11.2%.
Take `NCC[C@@H](O)c1cccc(OCC2CCCC(=O)N2)c1` (some centres unmarked) [Example 27]: for the setting “4 h”, the inhibition at 1 mg/kg was 9%.
On to `NCC[C@@H](O)c1cccc(OCC2CCCO2)c1` (mixture of isomers) [Example 14, (1R)-3-Amino-1-(3-((tetrahydrofuran-2-yl)methoxy)phenyl)propan-1-ol], for which the inhibition at 1 mg/kg reads like this: (2 h) 79.2%; (4 h) 59.8%; (8 h) 0.8%.
Regarding `NCC[C@@H](O)c1cccc(OCC2CCS(=O)(=O)CC2)c1` [Example 9, (R)-4-((3-(3-Amino-1-hydroxypropyl)phenoxy)methyl)tetrahydro-2H-thiopyran 1,1-dioxide], the inhibition at 1 mg/kg (4 h) is -8.2%.
The same measure, in the same setting: the same measure for `NCC[C@@H](O)c1cccc(OCc2cccs2)c1` [Example 28, (R)-3-Amino-1-(3-(thiophen-2-ylmethoxy)phenyl)propan-1-ol]: 50.6%.
`NCC[C@@H](O)c1cccc(NCC2CCOCC2)c1` [Example 23, (R)-3-Amino-1-(3-(((tetrahydro-2H-pyran-4-yl)methyl)amino)phenyl)propan-1-ol]: the inhibition at 1 mg/kg was 4.4% (2 h), -1.4% (4 h) and 1.5% (8 h).
As to `NCC[C@@H](O)c1cccc(OCC2Cc3ccccc3O2)c1` (mixture of isomers) [Example 13, (1R)-3-Amino-1-(3-((2,3-dihydrobenzofuran-2-yl)methoxy)phenyl)propan-1-ol], under “2 h”, the inhibition at 1 mg/kg was 62.1%.
Consider `NCC[C@@H](O)c1cccc(OCc2ccncc2)c1` [Example 4, (R)-3-amino-1-(3-(pyridin-4-ylmethoxy)phenyl)propan-1-ol], for which, where the note is “4 h”, the inhibition at 1 mg/kg was -8.7%.
With `NCC[C@@H](O)c1cccc(OCC2CCCS(=O)(=O)C2)c1` (mixture of isomers) [Example 10, 3-((3-((R)-3-Amino-1-hydroxypropyl)phenoxy)methyl)tetrahydro-2H-thiopyran 1,1-dioxide], for the setting “4 h”, the inhibition at 1 mg/kg is -7.6%.

The values above are taken from patent US20160151369A1, “SUBSTITUTED 3-PHENYLPROPYLAMINE DERIVATIVES FOR THE TREATMENT OF OPHTHALMIC DISEASES AND DISORDERS” (ACUCELA INC., priority 2013, published 2016).
